The results in this text go back to ChEMBL document CHEMBL1132517, “Nitrobenzyl carbamate prodrugs of enediynes for nitroreductase gene-directed enzyme prodrug therapy (GDEPT)” (Bioorg Med Chem Lett, 1999).

Assay [1] is described as follows: Oxygen dependence of cytotoxicity was assessed by clonogenic assay using stirred suspension cultures of AA8 cells after 1 hr under anoxic conditions. Type of assay: functional, Cricetulus griseus, CHO-AA8.
Assay [2] is described as follows: Oxygen dependence of cytotoxicity was assessed by clonogenic assay using stirred suspension cultures of AA8 cells after 4 hr under anoxic conditions. Type of assay: functional, Cricetulus griseus, CHO-AA8.
Assay [3] is described as follows: Oxygen dependence of cytotoxicity was assessed by clonogenic assay using stirred suspension cultures of AA8 cells after 1 hr under aerobic conditions. Format: functional, Cricetulus griseus, CHO-AA8.
The nature of assay [4]: Oxygen dependence of cytotoxicity was assessed by clonogenic assay using stirred suspension cultures of AA8 cells after 4 hr under aerobic conditions. Type of assay: functional, Cricetulus griseus, CHO-AA8.
The subject of assay [5] is SK-OV-3. Kind of assay: In vitro cytotoxicity against SKOV-3 cells in the absence of co-factor. Format: functional, cell-based. The following applies: Homo sapiens.
The test system of assay [6] is SK-OV-3. Kind of assay: In vitro cytotoxicity against SKOV-3 cells in the presence of 1 mM NADH co-factor. Format: functional, cell-based. The following applies: Homo sapiens.
Assay [7] has as its system SK-OV-3. The assay can be described thus: In vitro cytotoxicity against SKOV-3 cells in the presence of 1 mM NADH co-factor and 1 ug/mL Escherichia coli B nitroreductase (NTR). The following applies: Homo sapiens. Type of assay: functional, cell-based.
Assay [8] has as its system WiDr. Kind of assay: (§1) Ratio of cytotoxicities against WiDr cell line to NTR transfectant. Type of assay: functional, Homo sapiens.
Assay [9] can be described thus: Oxygen dependence of cytotoxicity was assessed by clonogenic assay using stirred suspension cultures of ERCC-1 mutant UV4 cells after 1 hr under anoxic conditions. Type of assay: functional, Cricetulus griseus.
Assay [10] can be described thus: Oxygen dependence of cytotoxicity was assessed by clonogenic assay using stirred suspension cultures of ERCC-1 mutant UV4 cells after 4 hr under anoxic conditions. Type of assay: functional, Cricetulus griseus.
A short description of assay [11]: Oxygen dependence of cytotoxicity was assessed by clonogenic assay using stirred suspension cultures of ERCC-1 mutant UV4 cells after 1 hr under aerobic conditions. Format: functional, Cricetulus griseus.
The subject of assay [12] is WiDr. The assay can be described thus: In vitro cytotoxicity against man colon carcinoma line WiDr cell lines transfected with Escherichia coli B nitroreductase (NTR). Format: functional, cell-based. The conditions noted are these: Homo sapiens.
A short description of assay [13]: Oxygen dependence of cytotoxicity was assessed by clonogenic assay using stirred suspension cultures of ERCC-1 mutant UV4 cells after 4 hr under aerobic conditions. Format: functional, Cricetulus griseus.
The nature of assay [14]: Ratio of oxygen dependence of cytotoxicities of UV4 cells in aerobic condition to anoxic condition. Format: functional.
A short description of assay [15]: Ratio of cytotoxicities against SKOV-3 cell line to NTR transfectant. Type of assay: functional, SK-OV-3.
Assay [16] can be described thus: Ratio of cytotoxicities against T78-1 cell line to NTR transfectant. Format: functional.
Assay [17] can be described thus: Ratio of cytotoxicity against SKOV-3 cells in the absence of co-factor to the cytotoxicity in the presence of co-factor and NTR. Format: functional, SK-OV-3.
Assay [18] has as its system T78-1. The assay can be described thus: In vitro cytotoxicity against Chinese hamster V79-derived cell line T78-1 transfected with Escherichia coli B nitroreductase (NTR). Type of assay: functional, cell-based. The conditions noted are these: Cricetulus griseus.
A short description of assay [19]: Oxygen dependence of cytotoxicity was assessed by clonogenic assay using stirred suspension cultures of AA8 cells after 3h under anoxic conditions. Format: functional, Cricetulus griseus, CHO-AA8.
Assay [20] is described as follows: Ratio of oxygen dependence of cytotoxicities of AA8 cells in aerobic condition to anoxic condition. Type of assay: functional, Cricetulus griseus, CHO-AA8.
Assay [21] can be described thus: Oxygen dependence of cytotoxicity was assessed by clonogenic assay using stirred suspension cultures of AA8 cells after 3h under aerobic conditions. Type of assay: functional, Cricetulus griseus, CHO-AA8.
Assay [22] in a line: Oxygen dependence of cytotoxicity was assessed by clonogenic assay using stirred suspension cultures of ERCC-1 mutant UV4 cells after 3h under anoxic conditions. Format: functional, Cricetulus griseus.
Assay [23] can be described thus: Oxygen dependence of cytotoxicity was assessed by clonogenic assay using stirred suspension cultures of ERCC-1 mutant UV4 cells after 3h under aerobic conditions. Type of assay: functional, Cricetulus griseus.
Assay [24] is described as follows: Oxygen dependence of cytotoxicity was assessed by clonogenic assay using stirred suspension cultures of ERCC-1 mutant UV4 cells after 8 hr under anoxic conditions. Type of assay: functional, Cricetulus griseus.
A short description of assay [25]: Oxygen dependence of cytotoxicity was assessed by clonogenic assay using stirred suspension cultures of ERCC-1 mutant UV4 cells after 8 hr under aerobic conditions. Type of assay: functional, Cricetulus griseus.
The nature of assay [26]: as §1. Format: functional.
Assay [27] deals with SK-OV-3. The assay can be described thus: In vitro for cytotoxicity against SKOV-3 cells in the presence of 1 mM NADH co-factor. Type of assay: functional, cell-based. The following applies: Homo sapiens.
Assay [28] concerns SK-OV-3. Kind of assay: In vitro for cytotoxicity against SKOV-3 cells in the presence of 1 mM NADH co-factor and 1 ug/mL Escherichia coli B nitroreductase (NTR). Format: functional, cell-based. The conditions noted are these: Homo sapiens.

As usually defined, the IC50 is the point on the concentration scale where inhibition reaches its midpoint.

Several values for one entry are separate records, joined by “and”; a condition that tells them apart may be missing. Equal values may be shown once. A value given as a limit tells only on which side of the number the result lay.

With `O=C(OCc1ccc([N+](=O)[O-])cc1)N1c2ccc(OCCO)cc2[C@@]23O[C@]24CCC[C@H]3C#C/C=C\C#C[C@H]14`, the “C10 N2” value in assay [1] was above 100 µM; in [2], above 100 µM; in [9], 60 µM; in assay [10], 12 µM. The C10 air in assay [3] came to 75 µM; in assay [4], 22 µM; in [11] it was 40 µM; in [13], 11 µM. Moreover, the IC50 in assay [5] was 500 nM; in assay [6], 500 nM; in [7], 39 nM; in [12], 1810 nM; in assay [18], 2400 nM. Also, the Selectivity is 135 in [8], 21.3 in assay [15], 111 in assay [16] and 13 in assay [17]. In addition, the “C10 air/C10 N2” value in [14] is 1.5 and 1.1.

Consider `O=C(OCc1ccccc1[N+](=O)[O-])N1c2ccccc2[C@@]23O[C@]24CCC[C@H]3C#C/C=C\C#C[C@H]14`, for which the “C10 N2” value in assay [19] was 200 µM; in assay [22], 53 µM. In addition, the “C10 air/C10 N2” value in assay [20] is on record as above 1.7; in assay [14], 0.4. Further, the results for the C10 air in [21] and in assay [23] were 120 µM and 140 µM, respectively. Further, the IC50 in assay [5] is above 20000 nM; in assay [6] it was above 20000 nM; in assay [7] it was above 20000 nM; in assay [12] it was above 20000 nM; in [18], 8900 nM. Further, the Selectivity in assay [16] was 1.9.

As to `O=C(OCc1ccc([N+](=O)[O-])cc1)N1c2ccccc2[C@@]23O[C@]24CCC[C@H]3C#C/C=C\C#C[C@H]14`, the “C10 N2” value in assay [19] was above 100 µM; in assay [22] it was above 100 µM; in assay [24] it was 70 µM. In addition, the C10 air in assay [21] is above 100 µM; in assay [23], above 100 µM; in assay [25], 70 µM. The half-maximal inhibitory concentration (IC50) was 20400 nM in assay [5]; above 20000 nM in [6]; 260 nM in assay [7]; 8400 nM in [12]; 11100 nM in assay [18]. Further, the ratio in assay [14] amounted to 1. Besides, the Selectivity came out at 264 in [15], 54 in assay [16], 97 in [26] and 95.9 in assay [17].

For the compound `NC(=O)c1cc(N2CC2)c([N+](=O)[O-])cc1[N+](=O)[O-]` [TRETAZICAR], the half-inhibitory concentration (IC50) in assay [27] came out at 760 nM; in assay [28], 1010 nM; in [12] it was 565000 nM. The Selectivity is recorded as 357 in assay [15], 1630 in assay [16], 51 in assay [26] and 183 in [17].
